Measured values reported in patent publication US11844822B2, “Solid formulation and method for preventing or reducing coloration thereof” (Elobix AB, priority 2014, dated 2023).

Test: Storage coloration test of Elobixibat, additive and their mixtures (visual observation)
Type: physicochemical
Text: 1,1-dioxo-3,3-dibutyl-5-phenyl-7-methylthio-8-(N—{(R)-1′-phenyl-1′-[N′-(carboxymethyl)carbamoyl]methyl}carbamoylmethoxy)-2,3,4,5-tetrahydro-1,5-benzothiazepine (Elobixibat) and an additive shown in Table 1 were mixed so that they have a volume ratio of 1:1 based on visual quantities, and thereby, the mixtures according to Reference Examples 3 to 9 were obtained. […] The mixture of each of Reference Examples 3 to 9, only Elobixibat as Reference Example 1, and only Macrogol (polyethylene glycol) 6000 as Reference Example 2 were independently stored in an aluminum bag as an airtight container for 2 weeks under the conditions of 60° C. and 75% relative humidity. After storage, the presence or absence of coloration of the materials of Reference Examples 1 and 2 and the mixtures according to Reference Examples 3 to 9 was visually observed.

Coloration after storage: Before storage → after storage (colour before and after 2 weeks at 60° C. and 75% relative humidity in aluminum bag): white → white
Coloration after storage (stored in aluminum bag (airtight container) for 2 weeks at 60° C. and 75% relative humidity, visually observed): Not observed
Structure (SMILES): CCCCC1(CCCC)CN(c2ccccc2)c2cc(SC)c(OCC(=O)N[C@@H](C(=O)NCC(=O)O)c3ccccc3)cc2S(=O)(=O)C1 [Reference Example 1, 1,1-dioxo-3,3-dibutyl-5-phenyl-7-methylthio-8-(N—{(R)-1′-phenyl-1′-[N′-(carboxymethyl)carbamoyl]methyl}carbamoylmethoxy)-2,3,4,5-tetrahydro-1,5-benzothiazepine]
